In patent US11795481B2, “Processes for producing a fermentation product” (Novozymes A/S, priority 2017, dated 2023):

Key:
[1] = tested on: mixed bacterial population previously isolated from an infected commercial corn mash; assay: Low Dry Solids fermentation of 1% infected liquefied corn mash with AA13 polypeptides, HPLC analysis (Example 2); assay type: cell-based; details: after 20 hrs of Low Dry Solids fermentation of corn mash; increasing doses; vs control
Experimental: Clean liquefied corn mash: Clean corn mash was prepared in our laboratories under typical liquefaction conditions using a blend of AA369 and Protease Pfu. […] Substrate is stored frozen and thawed before use.
Infected liquefied corn mash: Clean corn mash was inoculated with a mixed bacterial population previously isolated from an infected commercial corn mash. The infected mash was incubated with the inoculant for up to 24 hours at approximately 32° C. […] Substrate is frozen in 20% glycerol solution and then thawed before use.
1% Infected liquefied mash: Per every 100 g of “clean” mash, 1 g of infected mash is added and mixed thoroughly.
Low Dry Solids fermentation. 1% Infected Mash was diluted to 20% dry solids. 200 ppm target urea was added as an exogenous nitrogen source for yeast. Commercial glucoamylase GSA, was used at a dose of 0.6 AGU/g-dry solids. Yeast was pitched at a rate of 0.25 g/L. Experimental enzymes were dosed between 2 ppm and 100 ppm. Dosage were against dry solids.
Positive control: Penicillin was used at 25 ppm.
Negative control: No treatment was added.
Yeast, enzymes, and any additional tap water was added at approximately the same time to start fermentation. […]
Fermentations were sampled at various time points to examine soluble carbohydrates and organic acids. […] Analytes were quantified against internal standards. […]
Data was analyzed using SAS JMP statistical software.

[2] = tested on: multi-strain LAB culture; assay: SSF of control mash with 1% w/w infected mash, AA13 candidates, HPLC of organic acids and ethanol (Example 3); assay type: cell-based; details: SSF 32° C. up to 24 hours, 20% DS; for % delta Ethanol / % delta Lactic Acid: vs No Treatment
Experimental: A control mash was prepared in-house with an industry relevant blend of AA369 and Protease Pfu using a Lab-O-Mat incubator for 2 hours at 85° C. and 36% DS to simulate typical industry conditions. The mash was then frozen prior to use in SSF. An infected mash was prepared by infecting the control mash with a multi-strain LAB culture grown in MRS. The bacteria in control mash was incubated overnight, and then frozen with 20% glycerol. For this experiment, 1% weight/weight of the infected mash was mixed into the control mash. This mimics an infection event at a large-scale ethanol facility. For SSF, all mash was prepared with 1000 ppm of urea to aid with yeast fermentation. All treatments were dosed with a baseline commercial glucoamylase GSA, while AA13 candidates were dosed at either 10 ug/g-DS or 50 ug/g-DS. SSF was performed at 5 g scale with 10 uL/g rehydrated Ethanol Red yeast at 32° C. for up to 24 hours at 20% DS. At the end of fermentation, samples were deactivated with 50 uL of 40% sulfuric acid and then centrifuged. The supernatant was filtered through a 0.2 μm filter and then measured for soluble carbohydrates and organic acids using an ion-exchange H-column on HPLC.

[3] = relative to the parent Penicillium oxalicum glucoamylase; cited from earlier work

| Molecule | lactic acid titers, dose response (FIG. 5) [1] | average Ethanol ([2]; AA13 dose 10 ug/g-DS) | average Lactic Acid ([2]; AA13 dose 10 ug/g-DS) | % delta Ethanol ([2]; AA13 dose 10 ug/g-DS) | % delta Lactic Acid ([2]; AA13 dose 10 ug/g-DS) | average Ethanol ([2]; AA13 dose 50 ug/g-DS) | average Lactic Acid ([2]; AA13 dose 50 ug/g-DS) | % delta Ethanol ([2]; AA13 dose 50 ug/g-DS) | % delta Lactic Acid ([2]; AA13 dose 50 ug/g-DS) | sensitivity to protease degradation [3] |
| --- | --- | --- | --- | --- | --- | --- | --- | --- | --- | --- |
| Aspergillus terreus: AA13 polypeptide from Aspergillus terreus having the amino acid sequence of SEQ ID NO: 119 | reduced lactic acid titers compared to the control | 77.1 g/L | 3.4 g/L | −0.7% | 1.3% | 78.0 g/L | 3.4 g/L | 0.4% | 1.3% | – |
| PE001: variant of the Penicillium oxalicum glucoamylase of SEQ ID NO: 106 having a K79V substitution (protein, listed as Penicillium oxalicum) RPDPKGGNLTPFIHKEGERSLQGILDNLGGRGKKTPGTAAGLFIASPNTENPNYYYTWTRDSALTAKCLIDLFEDSRAVFPIDRKYLETGIRDYKSSQAILQSVSNPSGTLKDGSGLGEPKFEIDLNPFSGAWGRPQRDGPALRATAMITYANYLISHGQKSDVSQVMWPIIANDLAYVGQYWNNTGFDLWEEVDGSSFFTIAVQHRALVEGSQLAKKLGKSCDACDSQPPQILCFLQSFWNGKYITSNINTQASRSGIDLDSVLGSIHTFDPEAACDDATFQPCSARALANHKVYVDSFRSIYKINAGLAEGSAANVGRYPEDVYQGGNPWYLATLGASELLYDALYQWDRLGKLEVSETSLSFFKDFDATVKIGSYSRNSKTYKKLTQSIKSYADGFIQLVQQYTPSNGSLAEQYDRNTAAPLSANDLTWSFASFLTATQRRDAVVPPSWGAKSANKVPTTCSASPVVGTYKAPTATFSSKTKCVPAKDIVPITFYLIENTYYGENVFMSGNITALGNWDAKKGFPLTANLYTQDQNLWFASVEFIPAGTPFEYKYYKVEPNGDITWEKGPNRVFVAPTGCPVQPHSNDVWQF | – | – | – | – | – | – | – | – | – | reduced sensitivity to protease degradation relative to the parent |
